Test in all cases: NCI tumour cell line growth inhibition, 48 h
Assay [1] concerns CAKI-1.
Assay [2] concerns UO-31.
The subject of assay [3] is EKVX.
For assay [4], the system named is HCT-116.
Assay [5] relates to SK-MEL-5.
For assay [6], the system named is LOX IMVI.
The test system of assay [7] is OVCAR-5.
The test system of assay [8] is Malme-3M.
For assay [9], the system named is HOP-62.
The subject of assay [10] is HCC 2998.
The test system of assay [11] is SK-MEL-28.
The subject of assay [12] is HL-60.
Assay [13] deals with COLO 205.
Assay [14] has as its system NCI-H522.
The test system of assay [15] is SW-620.
The subject of assay [16] is SK-OV-3.
Assay [17] deals with NCI-H226.
The test system of assay [18] is M14.
Assay [19] has as its system RPMI-8226.
The test system of assay [20] is TK-10.

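In this assay, cells in 96-well plates receive the compound at five concentrations for 48 hours. Endpoints are linearly interpolated between the surrounding concentrations. GI50: concentration for 50% inhibition of growth.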 Activity calls are given as the source filed them. Cut-off read from the data, not from the text of the source: active = GI50 up to about 1.1 µM and inactive = higher.

Regarding `c1ccc2c3c(ccc2c1)-c1[nH]ncc1CCO3`, the GI50 in assay [1] was 33.4 µM (inactive); in assay [2] it was 25.6 µM (inactive); in [3], 13.6 µM (inactive); in assay [4] it was 32.4 µM (inactive); in [5] it was > 46.9 µM (inactive); in assay [6], 33.1 µM (inactive). The GI50 is 25.8 µM (inactive) in assay [7]; 45.7 µM (inactive) in assay [8]; 30.6 µM (inactive) in assay [9]; 35.6 µM (inactive) in [10]; 50.8 µM (inactive) in [11]; 14.6 µM (inactive) in [12]. For the same compound, the GI50 in assay [13] is 37.2 µM (inactive); in assay [14], 21.8 µM (inactive); in assay [15], 37.8 µM (inactive); in [16] it was 35.8 µM (inactive).
In the case of `NC(=O)c1c[se]c(C2OC(COP(=O)(O)CP(=O)(O)OCC3OC(n4cnc5c(N)ncnc54)C(O)C3O)C(O)C2O)n1` (stereo not given), the GI50 in [1] was 43.3 µM (inactive); in [2], > 100 µM (inactive); in [3] it was > 100 µM (inactive); in assay [17], > 100 µM (inactive); in assay [4] it was 52.1 µM (inactive); in assay [5] it was > 100 µM (inactive). The GI50 in assay [7] was > 100 µM (inactive); in assay [18], 72.8 µM (inactive); in [8], > 100 µM (inactive); in [9], > 100 µM (inactive); in [11], > 100 µM (inactive); in assay [12], 28.2 µM (inactive). The GI50 was 93.1 µM (inactive) in assay [13], > 100 µM (inactive) in assay [14], 30.9 µM (inactive) in [15] and > 100 µM (inactive) in assay [16].
Regarding `O=[N+]([O-])c1ccc(Cl)cc1N/N=C/c1ccnc2ccccc12`, the GI50 in [1] was > 100 µM (inactive); in [2] it was > 100 µM (inactive); in assay [3], 22.8 µM (inactive); in assay [19] it was > 100 µM (inactive); in [17] it was > 100 µM (inactive); in assay [4], 42.9 µM (inactive). Also, the GI50 in assay [5], in assay [18], in [9], in [10], in assay [11] and in assay [12] was > 100 µM (inactive) throughout. In addition, the GI50 in assay [13], in [14], in [20], in [15] and in assay [16] was > 100 µM (inactive) each time.
`Cc1ccc(S(=O)(=O)OC[C@@H]2CO2)cc1`: the GI50 in assay [1], in assay [2], in assay [3], in assay [17], in [4] and in assay [5] was > 100 µM (inactive) throughout. The GI50 was 99.3 µM (inactive) in assay [6]; > 100 µM (inactive) in [7]; > 100 µM (inactive) in assay [18]; > 100 µM (inactive) in [8]; > 100 µM (inactive) in assay [9]; > 100 µM (inactive) in assay [10]. Besides, the GI50 in assay [11] was > 100 µM (inactive); in assay [12], > 100 µM (inactive); in assay [13], > 100 µM (inactive); in assay [20] it was 44.6 µM (inactive); in [15], > 100 µM (inactive).
Take `COc1cccc(NC(=O)CSc2nnc(-c3ccc(NC(C)=O)cc3)o2)c1`: the GI50 in assay [1] is > 100 µM (inactive); in [2], 80.4 µM (inactive); in assay [19], > 100 µM (inactive); in assay [17], > 100 µM (inactive); in assay [4], > 100 µM (inactive); in [5] it was > 100 µM (inactive). The GI50 in assay [6] is > 100 µM (inactive); in assay [7], 83.2 µM (inactive); in assay [18], > 100 µM (inactive); in assay [8], > 100 µM (inactive); in [9], > 100 µM (inactive); in assay [11], > 100 µM (inactive). Further, the GI50 in [12], in [13], in assay [14], in assay [20], in assay [15] and in [16] was > 100 µM (inactive) throughout.
Take `CCCN(CCC)c1cc2c(cc1F)c(=O)c(C(=O)O)cn2-c1ccc(N2CCN(C)CC2)cn1`: the GI50 was 15.3 µM (inactive) in [1]; 13.3 µM (inactive) in assay [2]; 16.7 µM (inactive) in assay [3]; 17.7 µM (inactive) in [19]; 16.7 µM (inactive) in [17]; 15.3 µM (inactive) in assay [4]. The GI50 was 3 µM (inactive) in assay [6]; 18.8 µM (inactive) in assay [7]; 16.9 µM (inactive) in [18]; 13.3 µM (inactive) in [8]; 16.7 µM (inactive) in assay [9]; 19.6 µM (inactive) in [11]. For the same compound, the GI50 was 6.18 µM (inactive) in [12]; 13.4 µM (inactive) in [13]; 11.5 µM (inactive) in assay [14]; 10.4 µM (inactive) in assay [20]; 16.2 µM (inactive) in assay [15]; 14.3 µM (inactive) in assay [16].
With `CN1NC(c2ccc(Cl)cc2)=C(C#N)C(=O)CC1c1ccccc1` (stereo not given), the GI50 in [1] is > 100 µM (inactive); in assay [19], > 100 µM (inactive); in assay [17] it was > 10 µM (inactive); in assay [4], > 100 µM (inactive); in [5], 72.9 µM (inactive); in assay [6], > 100 µM (inactive). Further, the GI50 in assay [7] was > 100 µM (inactive); in [11], > 100 µM (inactive); in [12], > 100 µM (inactive); in assay [13], > 100 µM (inactive); in [14] it was 79.4 µM (inactive); in [20], > 100 µM (inactive). Further, the GI50 in assay [15] and in assay [16] was > 100 µM (inactive) each time.
In the case of `O=C(Cc1nc2ccc(C(=O)c3ccccc3)cc2nc1O)C(=O)Nc1nc2ccccc2[nH]1`, the GI50 was 40.2 µM (inactive) in [1]; 60.3 µM (inactive) in [2]; > 100 µM (inactive) in assay [3]; 51.6 µM (inactive) in assay [4]; 31 µM (inactive) in [5]; 44 µM (inactive) in assay [6]. Further, the GI50 is 82.6 µM (inactive) in [18]; 87.9 µM (inactive) in assay [8]; 33.3 µM (inactive) in assay [9]; > 100 µM (inactive) in assay [10]; 98.6 µM (inactive) in assay [11]; 35.8 µM (inactive) in [12]. The GI50 was 36.8 µM (inactive) in assay [13]; 30 µM (inactive) in assay [14]; 49.3 µM (inactive) in [20]; 42.9 µM (inactive) in [15]; > 100 µM (inactive) in [16].
For `CSc1nc2c(c(N3CCOCC3)n1)C(O)n1c(nc3ccccc31)S2` (stereo not given), the GI50 in assay [1] is > 100 µM (inactive); in [2] it was 3.93 µM (inactive); in assay [3] it was > 100 µM (inactive); in assay [19], 4.72 µM (inactive); in assay [4], > 100 µM (inactive); in assay [5] it was 3.23 µM (inactive). Moreover, the GI50 in assay [6] was > 100 µM (inactive); in assay [7] it was > 100 µM (inactive); in assay [18], > 100 µM (inactive); in assay [8] it was 52.2 µM (inactive); in assay [9], 40.6 µM (inactive); in assay [10], > 100 µM (inactive). Besides, the GI50 in assay [12] is > 100 µM (inactive); in [13] it was 0.055 µM (active); in assay [14], 24.8 µM (inactive); in assay [20] it was 47.5 µM (inactive); in assay [15], 32.1 µM (inactive); in [16], 96.2 µM (inactive).
For the compound `COc1cc(O)c2c(=O)cc(C3(O)C=CC(=O)C=C3)oc2c1`, the GI50 in assay [1] was < 0.0476 µM (active); in assay [2] it was 0.0733 µM (active); in assay [3], 1.36 µM (inactive); in assay [17], 0.394 µM (active); in assay [4], 0.29 µM (active); in assay [5], 0.0321 µM (active). Besides, the GI50 is 0.041 µM (active) in assay [6]; 0.542 µM (active) in [18]; < 0.01 µM (active) in [8]; 0.182 µM (active) in assay [9]; 0.535 µM (active) in assay [10]; 0.199 µM (active) in assay [11]. In addition, the GI50 is < 0.01 µM (active) in assay [12]; 0.463 µM (active) in [13]; < 0.0361 µM (active) in assay [14]; 0.0658 µM (active) in [20]; < 0.0417 µM (active) in assay [15]; 2.37 µM (inactive) in assay [16].
With `c1ccc(-c2nnc(-c3nsc4ccccc34)o2)cc1`, the GI50 was 19.5 µM (inactive) in [2]; 41.4 µM (inactive) in assay [3]; > 100 µM (inactive) in assay [19]; > 100 µM (inactive) in [4]; > 100 µM (inactive) in assay [5]; > 100 µM (inactive) in assay [6]. The GI50 in assay [7], in [18], in assay [9], in assay [10], in [11] and in assay [12] was > 100 µM (inactive) in each case. Further, the GI50 in assay [13], in assay [20] and in assay [15] was > 100 µM (inactive) throughout.
Take `NC(C/C=C/P(=O)(O)O)C(=O)O` (stereo not given): the GI50 in assay [1] is 2 µM (inactive); in [2] it was > 100 µM (inactive); in assay [3] it was > 100 µM (inactive); in assay [4] it was > 100 µM (inactive); in assay [5], > 100 µM (inactive); in assay [6], > 100 µM (inactive). The GI50 in assay [7], in assay [18], in assay [10], in assay [11], in [12] and in [13] was > 100 µM (inactive) in each case. Moreover, the GI50 in [14], in [20], in [15] and in assay [16] was > 100 µM (inactive) each time.

Values taken from ChEMBL document CHEMBL1201862, “PubChem BioAssay data set” (2004).
